Test results: publication PMC6614837 (Nucleic Acids Research, 2019)
“Also recorded” adds a separate entry of the source.

Assays:
P RNA [1] = assay: Gel-based activity assay, bipartite pre-tRNA substrate, P RNA alone; format: biochemical, T. maritima; conditions: 100 mM AmOAc, 10 mM MgCl2
Protocol: For gel-based activity assays, reactions were prepared as described in the previous section (fluorescence activity assay), incubated for 1–15 min at 37–50°C, then loaded onto a denaturing 7 M urea–20% acrylamide gel in the case of the Mh substrate or 19% acrylamide (40% acrylamide/bisacrylamide 38.5:1.5) for the bipartite pre-tRNA substrate. The activity conditions for the gel reported in Figure 3A, to monitor the cleavage of the holoenzyme and P RNA, were under 100 mM AmOAc and 10 mM MgCl2. The gels (13 × 16 × 0.15 cm) were electrophoresed at 20 V/cm for 2–3 h. UV shadowing or ethidium bromide staining was used to visualize RNA cleavage. Detection of minihelix fluorescence was achieved without staining using a UV lamp with excitation at ∼254 nm.
Figure 3. The inhibitors purpurin and hematein bind to the holoenzyme. (A) Top. […] Bottom. […] (B) The relative affinities of the inhibitors for the P RNA or the holoenzyme differ. Binding sensorgrams obtained by biolayer interferometry (BLI). P RNA or RNase P holoenzyme was immobilized on super streptavidin (SSA) biosensors through a 5′-biotinylated RNA oligonucleotide complementary to a region on the P1 stem of P RNA (see Materials and Methods). […] In contrast, gentian violet binds not only to P RNA but also to the Mh substrate (Supplementary Figure S16). (C) Molecular Dynamics (MD) simulations of RNase P protein in complex with the validated inhibitors. In each panel, semitransparent spheres represent the geometric center, over a 200 ns trajectory, of the corresponding tested compound. The 5′-leader (yellow) is shown for reference purposes only; it was not included in the simulation. Sphere color coding indicates the starting and final positions in blue and red, respectively. […] Purpurin's starting conformation corresponds to that observed in the crystal structure in complex with the P protein (PDB code: 6MAX. See Figure 5).

minihelix (Mh) = assay: Biolayer interferometry binding to biotinylated minihelix substrate; conditions: BLI
Protocol: 3′-Biotinylated minihelix was purchased from Integrated DNA Technologies (IDT) (24-mer RNA sequence, 5′-[…]-3′-Biotin). The biotinylated minihelix was immobilized on Super Streptavidin (SSA) biosensors at a concentration of 10 μM. […] For the titration experiments, 10 μM of 3′-biotinylated minihelix was immobilized for 300 s on Super Streptavidin (SSA) biosensors, followed by a wash step of 100 s and association and dissociation steps of 200 s in the presence of 6 different concentrations of compound ranging from 500 to 15.6 μM. SSA biosensors with no minihelix were used to measure non-specific binding of compounds. All other parameters (buffer, instrument control, analysis) are as described above.
Supplementary Figure 16. Binding assays monitor the interaction of compounds with the minihelix (Mh). Gentian violet and methylene blue bind in a dose-dependent relationship to the artificial minihelix substrate. […]
interaction between the minihelix and (A) gentian violet (KD=8 µM ) and (B) methylene blue A 3′-biotinylated substrate minihelix at 10 µ M was immobilized on super streptavidin (SSA) biosensors for 300 s.
Supplementary Figure 17. pre-tRNA displaces bound purpurin in a dose-response […]
indicating a true competition between purpurin and pre-tRNA binding sites. […]

RNase P holoenzyme = molecular target: T1, RNase P holoenzyme (Thermotoga maritima, UniProt Q9X1H4); assay: Displacement of pre-tRNA from the holoenzyme (BLI); format: binding, T. maritima; conditions: holoenzyme on Ni-NTA biosensors, compound 0–400 μM, then pre-tRNA
T1 construct: GST (cleaved yes); made in house; host or cells: E. coli BL21(DE3)pLysS
T1 sequence (Q9X1H4 1-117): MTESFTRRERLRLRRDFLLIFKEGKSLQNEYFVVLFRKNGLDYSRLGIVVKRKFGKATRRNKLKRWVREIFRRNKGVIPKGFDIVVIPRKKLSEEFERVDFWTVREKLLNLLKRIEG
Protocol: (§1) Real-time binding assays of the holoenzyme, P RNA, P protein, the substrate minihelix and the 5′-leader to individual compounds were performed by biolayer interferometry using an Octet RED96 system (ForteBio). For the holoenzyme or P RNA, a 5′ biotinylated RNA oligonucleotide with the sequence 5′biotin-CAUUCCAGACGAU was immobilized on Super Streptavidin (SSA) biosensors. Then, a modified P RNA or holoenzyme was added. The P RNA modification consisted of a sequence with part of the P1 stem sequence complementary to the biotinylated oligonucleotide (AUCGUCUGGA) (Supplementary Figure S23A). P1 is far from the active site or other regions involved in specific interactions (Supplementary Figure S23B) ([19]). The activity of this construct was indistinguishable from the wild-type holoenzyme. Alternatively, the holoenzyme was immobilized through the His-tagged P protein from T. maritima at 0.05 mg/ml (3.4 μM) on Ni-NTA biosensors. Control biosensors were used to subtract non-specific binding of compounds to the biosensor surface. All assay steps (immobilization, wash, baseline, association, and dissociation) were performed in 20 mM HEPES pH 7.4, 100 mM ammonium acetate, 10 mM MgCl2, 2.5% DMSO. The assays were performed on black bottom 96-well microplates (Greiner Bio-One 655209) in a total volume of 200 μl, at 30°C with orbital shaking at 1000 rpm. Experiments were controlled with the software Data Acquisition 8.2 (ForteBio, Inc.). Kinetic binding parameters were calculated using Data Analysis 8.2 (ForteBio, Inc.). After subtraction of reference biosensors, the binding curves were aligned to the X- and Y-axis and the association-dissociation inter-step curve in order to get a common baseline for the association and dissociation phases.
Figure 4. Characterization of the inhibition of T. maritima RNase P by purpurin. (A) Best global fit for inhibition of RNase P in the presence of varying concentrations of fluorescent Mh substrate. […] Symbols represent the mean ± standard error as determined from three independent experiments at each concentration. See also Supplementary Figure S18. […] Binding sensorgrams obtained by biolayer interferometry (BLI). RNase P holoenzyme at 400 nM was immobilized on Ni-NTA. […] Binding sensorgrams obtained by biolayer interferometry (BLI). RNase P holoenzyme was immobilized on Ni-NTA biosensors, incubated with purpurin at varying concentrations (0–400 μM), and then the association and dissociation pre-tRNA was monitored. […] See also Supplementary Figure S17.

P protein = molecular target: T2, P protein (Thermotoga maritima, UniProt Q9X1H4); assay: Binding hindrance of the 5′ RNA leader to the P protein (BLI); parameters: species or system T. maritima; conditions: compound 100 μM, 5′ RNA leader 5 μM
T2 construct: GST (cleaved yes); made in house; host or cells: E. coli BL21(DE3)pLysS
T2 sequence (Q9X1H4 1-117): T1 sequence (Q9X1H4 1-117)
Protocol: A 5′ RNA leader sequence with 10-bases 5′-GGAAAAAGAU-3′ was purchased from IDT and used at a concentration of 5 μM. This sequence is the same used to obtain the crystal structure of the RNase P holoenzyme ([19]). The His-tagged P protein was immobilized on Ni-NTA biosensors at 0.05 mg/ml (3.4 μM). […] The steps performed on the assay and their periods were: P protein immobilization (400 s), wash (100 s), baseline […] (1000 rpm), compound association (800 s), compound dissociation (200 s) (500 rpm), baseline (100 s), 5′ leader association (200 s), 5′ leader dissociation (200 s) (1000 rpm). The assay was performed at 30°C. The compounds were used at 100 μM throughout. All assay steps were performed in 20 mM HEPES pH 7.4, 100 mM ammonium acetate, 10 mM MgCl2, 5% DMSO.
5 ′ RNA leader. (A) Experimental design of 5′ RNA leader binding hindrance experiments. Figures B-F are based on the analysis region depicted in panel A, where association and dissociation of the 5′ RNA leader to the P protein (TmP) is measured over time. P protein at 3.5 µM was immobilized on Ni-NTA biosensors for 300 s, while compounds were assayed at 100 µM and the […]
binding, in contrast with hematein (E) and purpurin (F).
(1 picture or pasted object on this page, not shown here)

P RNA [2] = assay: Biolayer interferometry binding to immobilized P RNA; parameters: species or system T. maritima; conditions: BLI, P RNA on SSA biosensors via biotinylated oligonucleotide
Protocol: as §1
Figure 3. The inhibitors purpurin and hematein bind to the holoenzyme. (A) Top. […] Bottom. […] (B) The relative affinities of the inhibitors for the P RNA or the holoenzyme differ. Binding sensorgrams obtained by biolayer interferometry (BLI). […]

RNase P from E. coli = test system: RNase P from E. coli; parameters: method as in PMID 24097434; conditions: cited from earlier work
[3] = molecular target: T3, RNase P holoenzyme from Thermotoga maritima (Thermotoga maritima, UniProt Q9X1H4); assay: Real-time fluorescence-based (FRET) RNase P activity assay with minihelix (Mh) substrate; format: biochemical
T3 construct: made in house
T3 sequence (Q9X1H4 1-117): T1 sequence (Q9X1H4 1-117)
Protocol: The reconstitution of the RNase P holoenzyme was performed as described in ([40],[19]). This protocol produces a homogeneous and functional ribozyme that can be crystallized by mixing P RNA and P protein in a 1:1.1 molar ratio in 1× TH buffer (33 mM Tris–HCl, 66 mM HEPES, pH 7.4) and 400 mM ammonium acetate (AmOAc). The mixture was heated to 95°C for 2 min in a water bath, then chilled on ice for 2 min, after which MgCl2 was added to a final concentration of 100 mM. […] This higher concentration was used in all experiments described herein. The holoenzyme was further incubated at 50°C for 10 min and 37°C for 40 min. The final concentration of holoenzyme was 333 nM (35.6 μg/ml of P RNA and 4.7 μg/ml of P protein).
The minihelix (Mh) substrate (Figure 1A) was adopted from a previously characterized RNase P substrate, pMini3bpUG ([32],[33]) and coupled to either Black Hole Quencher 1 (BHQ1) or Black Hole Quencher 2 (BHQ2) at the 5′-end and Alexa Fluor 488 at the 3′-end. This probe was purchased either from Sigma-Aldrich or Integrated DNA Technologies (IDT). A requested scale of […] yielded between 6.3 and 20 nmol (57.5 to 181 μg, enough for 1300–4000 reactions depending on the experimental substrate concentration). Before use, the minihelix was diluted from a 100 μM stock (dissolved in water) to 3.6 μM in activity buffer H (33 mM Tris–HCl, 66 mM HEPES, pH 7.4, 400 mM AmOAc and 100 mM MgCl2).
Reactions were performed in a total volume of 20 μl. Pipetting was done by hand using multichannel pipettes. First, an 18 μl reaction mixture containing 16.5 μl of activity buffer (H for Mh or L supplemented with 10% PEG 200 for bipartite pre-tRNA) and 270 nM (Mh) or 135 nM (bipartite pre-tRNA) (1.5 or 0.7 μl of the 3.6 μM stock) of the fluorescent substrate probe was pre-incubated on ice for at least 5 m in a black polystyrene 384-well microtiter microplate with a flat transparent bottom (Corning ref 3540). The holoenzyme was then added at a final concentration of 33 nM (2 μl of a 333 nM stock) in 1× TH buffer and mixed. Kinetic activity was monitored in a Synergy MX Multimode Detector (BioTek) at 37°C with rapid agitation. At least 20 readings were taken per well every 15 s. The probe was excited at 485 nm, and its emission was monitored at 535 nm with an integration time of 1 s. From the plots of relative fluorescent units (RFU) versus time, linear regression was used to determine the slopes in the linear portion of the curves, using at least 12 data points to obtain initial velocities. Non-linear fitting to obtain the Michaelis–Menten parameters was performed using GraphPad Prism® 6.01 software.
Supplementary Figure 3. FRET assays of RNase P with the fluorescent substrate are reproducible. (A) Representative plots of kinetic assays performed in a single run. The standard assay (SA), (+), was performed at 37° C in a total volume of 20 µL and contained RNase P holoenzyme at 33 nM, substrate minihelix (Mh) at 270 nM, 10% DMSO and activity buffer (AB).
The negative control assay (-) contained 100 mM CaCl2 in place of MgCl2. Ten to twelve wells were monitored simultaneously in a typical assay. (B) Zoomed view of the linear region of the kinetic assays shown in panel A. Fluorescence readings were performed every 15-20 seconds.
Linear regression calculations were done using the GraphPad Prism 7 software. (C) The coefficient Z’-factor (1) was used as an indicator of reproducibility and was calculated based on the relative fluorescence units (RFU) in the plateau phase (taken at 20 minutes). The Z’-factor has a […]
presented in this work were either measured in triplicate or confirmed in subsequent assays. (D) […]
assay is robust. The IC50 values reported in Figures 1C and 2 were calculated according to this kinetic parameter. There is a negative drift in fluorescence in the case of the negative control.
However, it should be noted that the mean value of it (-279) is much smaller than the signal of the […]
positive control (3397). […]

[4] = molecular target: T4, RNase P protein (TmP, P protein) (Thermotoga maritima, UniProt Q9X1H4 1-117); assay: BLI; conditions: BLI (Octet RED96): 20 mM HEPES pH 7.4, 100 mM ammonium acetate, 10 mM MgCl2, 2.5-5% DMSO, 30 C; P protein:P RNA in 33 mM Tris, 66.6 mM HEPES, 200 mM ammonium …
T4 sequence: T1 sequence (Q9X1H4 1-117)

CN(C)c1ccc([C+](c2ccc(N(C)C)cc2)c2ccc(N(C)C)cc2)cc1.[Cl-] [Gentian violet, tris(4-(dimethylamino)phenyl)methylium chloride, reference compound]
Inhibition of the P RNA reaction (P RNA [1]): inhibits the reaction via P RNA | Kd (minihelix (Mh); 3′-biotinylated minihelix 10 μM on SSA biosensors): 8 µM | Binding to the minihelix substrate (minihelix (Mh); initial screening at 1 mM and titration): binding signal; also recorded: binds to the biotinylated minihelix substrate in the micromolar range | Dose–response displacement of pre-tRNA (RNase P holoenzyme): No | Hindrance of 5′ RNA leader binding to the P protein (P protein): did not interfere with RNA leader | Hindrance of 5′ RNA leader binding to the P protein (P protein; listed as gentian violet): do not impede the leader binding | Binding to P RNA (P RNA [2]): binds more strongly to it

Mh: 24-nucleotide minihelix RNase P model substrate with 5′ Black Hole Quencher and 3′ Alexa Fluor 488 (GAUCUGAAUGCGGAAACGCGCCAC; 5' BHQ quencher, 3' Alexa Fluor 488, further chemistry not given here)
kobs (previously reported) (RNase P from E. coli): 0.86 min⁻¹ | Kd (RNase P from E. coli; read-out: KD (previously reported)): 2.8 µM | kcat ([3]; Michaelis–Menten fit): 0.112 s⁻¹ | Km ([3]; holoenzyme 11 nM, Michaelis-Menten fit): 1.3 µM

P RNA
Kd [4]: 0.0005 µM
